Reference: patent publication US20230381210A1, “COMPOSITION FOR PREVENTION, AMELIORATION, OR TREATMENT OF HYPERSENSITIVITY IMMUNE DISEASE CONTAINING GALACTOSE” (Quorum Bio Co., Ltd., priority 2020, published 2023)

Experiments:
Format in all cases: in vivo, BALB/c mice
[1] = system: DNCB-induced atopic dermatitis mouse model; experiment: Total IgE in serum by ELISA in DNCB-induced atopic dermatitis mouse model; settings: oral 200 mg/kg daily (G6) vs negative control (G3); day 16; FIG. 7
Protocol: An animal experiment in the following example was performed in accordance with the regulations set forth by Chonnam National University IACUC in an environment maintained at 50±5% humidity and 24˜26° C. temperature. 7-week-old male BALB/c mice (Damool Science Co., Ltd.) bred as a test animal were used, and after being acclimatized in a laboratory environment for one week while supplying enough feed and water, they were used in the experiment. Non-allergenic, dust-free, non-toxic, absorbent and pathogen-free bedding was used, and the cage was changed once a week to maintain a clean environment, and water was freely supplied with a water bottle. […] On the day 16 after the first DNCB application (just before necropsy), ear thickness and clinical symptoms of the mice were measured. At autopsy (16 days after first DNCB application), whole blood was collected, and then serum was separated and the IgE level in serum was measured by ELISA. As total IgE in serum was increased, when DNCB was treated to skin in the DNCB-induced atopic dermatitis mouse model, in the present example, by collecting blood right before autopsy of the mice prepared in Reference example 1 and then isolating serum and evaluating the total amount of IgE (ug/ml) in serum through ELISA method, a protective effect of atopic dermatitis was indirectly evaluated.

[2] = system: DNCB-induced atopic dermatitis mouse model; experiment: Spleen and lymph node weight in DNCB-induced atopic dermatitis mouse model; settings: oral 100 or 200 mg/kg daily (G5, G6) vs negative control (G3)
Protocol: An animal experiment in the following example was performed in accordance with the regulations set forth by Chonnam National University IACUC in an environment maintained at 50±5% humidity and 24˜26° C. temperature. 7-week-old male BALB/c mice (Damool Science Co., Ltd.) bred as a test animal were used, and after being acclimatized in a laboratory environment for one week while supplying enough feed and water, they were used in the experiment. Non-allergenic, dust-free, non-toxic, absorbent and pathogen-free bedding was used, and the cage was changed once a week to maintain a clean environment, and water was freely supplied with a water bottle. Galactose was pre-administered for 2 weeks from the period when the prepared mice were 8-week-old. Pre-administration was performed by oral administration once a day for 2 weeks, and the dose of galactose was 100 mg/kg or 200 mg/kg, respectively. As a control group, mice administered (orally) with PBS for the same period were prepared. […] On the day 16 after the first DNCB application (just before necropsy), ear thickness and clinical symptoms of the mice were measured. […] In the present example, by measuring the weight of the spleen and armpit lymph nodes right before autopsy of the mice prepared in Reference example 1, a protective effect of atopic dermatitis was indirectly evaluated.

[3] = system: DNCB-induced atopic dermatitis mouse model; experiment: Ear thickness measurement in DNCB-induced atopic dermatitis mouse model; settings: oral 100 or 200 mg/kg daily (G5, G6); FIG. 3
Protocol: An animal experiment in the following example was performed in accordance with the regulations set forth by Chonnam National University IACUC in an environment maintained at 50±5% humidity and 24˜26° C. temperature. 7-week-old male BALB/c mice (Damool Science Co., Ltd.) bred as a test animal were used, and after being acclimatized in a laboratory environment for one week while supplying enough feed and water, they were used in the experiment. Non-allergenic, dust-free, non-toxic, absorbent and pathogen-free bedding was used, and the cage was changed once a week to maintain a clean environment, and water was freely supplied with a water bottle. Galactose was pre-administered for 2 weeks from the period when the prepared mice were 8-week-old. Pre-administration was performed by oral administration once a day for 2 weeks, and the dose of galactose was 100 mg/kg or 200 mg/kg, respectively. […] On the day 16 after the first DNCB application (just before necropsy), ear thickness and clinical symptoms of the mice were measured. The mice prepared in Reference example 1 were evaluated for clinical symptoms (rubefaction, keratin formation (dryness degree), crust formation), and ear thickness was measured and then recorded three times a week (Monday, Wednesday, Friday). Ear thickness was measured three times a week using Caliper (R12-1A, Ozaki, Tokyo, Japan). […]

[4] = system: DNCB-induced atopic dermatitis mouse model; experiment: Visual confirmation of skin lesions in DNCB-induced atopic dermatitis mouse model; settings: oral 100 or 200 mg/kg daily (G5, G6) vs negative control (G3, PBS); FIG. 2, n=2 per group
Protocol: An animal experiment in the following example was performed in accordance with the regulations set forth by Chonnam National University IACUC in an environment maintained at 50±5% humidity and 24˜26° C. temperature. 7-week-old male BALB/c mice (Damool Science Co., Ltd.) bred as a test animal were used, and after being acclimatized in a laboratory environment for one week while supplying enough feed and water, they were used in the experiment. Non-allergenic, dust-free, non-toxic, absorbent and pathogen-free bedding was used, and the cage was changed once a week to maintain a clean environment, and water was freely supplied with a water bottle. Galactose was pre-administered for 2 weeks from the period when the prepared mice were 8-week-old. Pre-administration was performed by oral administration once a day for 2 weeks, and the dose of galactose was 100 mg/kg or 200 mg/kg, respectively. As a control group, mice administered (orally) with PBS for the same period were prepared. After 2 weeks of pre-administration, the hairs on the mouse head and back of the mice were removed using a clipper and depilatory cream. […] On the day 16 after the first DNCB application (just before necropsy), ear thickness and clinical symptoms of the mice were measured. […]

[5] = system: DNCB-induced atopic dermatitis mouse model; experiment: Clinical scoring (rubefaction, keratin formation, crust formation) in DNCB-induced atopic dermatitis mouse model; settings: oral 100 or 200 mg/kg daily (G5, G6) vs negative control (G3); FIG. 4
Protocol: An animal experiment in the following example was performed in accordance with the regulations set forth by Chonnam National University IACUC in an environment maintained at 50±5% humidity and 24˜26° C. temperature. 7-week-old male BALB/c mice (Damool Science Co., Ltd.) bred as a test animal were used, and after being acclimatized in a laboratory environment for one week while supplying enough feed and water, they were used in the experiment. Non-allergenic, dust-free, non-toxic, absorbent and pathogen-free bedding was used, and the cage was changed once a week to maintain a clean environment, and water was freely supplied with a water bottle. […] On the day 16 after the first DNCB application (just before necropsy), ear thickness and clinical symptoms of the mice were measured. The mice prepared in Reference example 1 were evaluated for clinical symptoms (rubefaction, keratin formation (dryness degree), crust formation), and ear thickness was measured and then recorded three times a week (Monday, Wednesday, Friday). Ear thickness was measured three times a week using Caliper (R12-1A, Ozaki, Tokyo, Japan). […] For the mice prepared in Reference example 1, the clinical symptoms of the three items (rubefaction, keratin formation (dryness), crust formation) were scored on the basis of the following: 0 point; none, 1 point; mild, 2 points; moderate, 3 points; severe.

O=C[C@H](O)[C@@H](O)[C@@H](O)[C@H](O)CO [galactose]
total amount of IgE in serum [1]: significantly reduced
weight of spleen ([2]; FIG. 5): generally reduced
weight of lymph nodes (armpit) ([2]; FIG. 6): generally reduced
ear thickness [3]: significantly reduced
degree of crust formation [4]: reduced
degree of skin rubefaction [4]: suppressed
score of clinical symptoms (sum of rubefaction, keratin formation, crust formation scores) [5]: significantly reduced
